Measured values from patent publication US5556886A, “HIV-inhibiting benzeneacetamide derivatives” (Janssen Pharmaceutica N.V., priority 1990, dated 1996).
Converted amounts (≈) assume the structure as drawn.

Tests used:
HIV-1 = assay: in-vitro anti-HIV assay: inhibition of HIV-induced cytopathic effect in MT-4 cells (MTT); format: cell-based; conditions: for SI (selectivity index, ratio of CD50 to ED50): CD50/ED50, MT-4 cells; for EC50: Human immunodeficiency virus 1, MT4, HIV-infected MT-4 cells, cytopathic effect, MTT, 540 nm, read-out: ED50 (dose achieving 50% protection)
Experimental: (§1) A rapid, sensitive and automated assay procedure was used for the in-vitro evaluation of anti-HIV agents. An […] T4-cell line, MT-4, which was previously shown (Koyanagi et al., Int. J. Cancer, 36, 445-451, 1985) to be highly susceptible to and permissive for HIV infection, served as the target cell line. Inhibition of the HIV-induced cytopathic effect was used as the end point. The viability of both HIV-and mock-infected cells was assessed spectrophotometrically via the in-situ reduction of 3-(4,5-dimethylthiazol-2-yl)-2,5-diphenyltetrazolium bromide (MTT). The 50% cytotoxic dose (CD50 in μg/ml) was defined as the concentration of compound that reduced the absorbance of the mock-infectedcontrol sample by 50%. The percent protection achieved by the compound in HIV-infected cells was calculated by the following formula: [formula] whereby (ODT)HIV is the optical density measured with a given concentration of the test compound in HIV-infected cells; (ODC)HIV is the optical density measured for the control untreated HIV-infected cells; (ODC)MOCK is the optical density measured for the control untreated mock-infected cells; all optical density values were determined at 540 nm. The dose achieving 50% protection according to the above formula was defined as the 50% effective dose (ED50 in μg/ml). The ratio of CD50 to ED50 was defined as the selectivity index (SI).

in vitro = format: cell-based; conditions: human, mt-4 cells
Experimental: as §1

Compound | SI (selectivity index, ratio of CD50 to ED50) (HIV-1) | EC50 (HIV-1) [µg/mL] | CC50 (in vitro) [µg/mL]
CC(=O)c1ccccc1NC(C(N)=O)c1c(Cl)cccc1Cl (racemic) [Compound 22, (±)-α[(2-acetylphenyl)amino]-2,6-dichlorobenzeneacetamide] | ~ 2700 | 0.013 (≈ 0.0386 µM) | 35 (≈ 104 µM)
CC(=O)c1ccccc1NC(C(N)=O)c1c(Cl)cccc1Cl (single isomer, unassigned) [Compound 23, (-)-α-[(2-acetylphenyl)amino]-2,6-dichlorobenzeneacetamide] | ~ 3000 | 0.0066 (≈ 0.0196 µM) | 20 (≈ 59.3 µM)
Cc1ccc([N+](=O)[O-])c(NC(C(N)=O)c2c(Cl)cccc2Cl)c1 (single isomer, unassigned) [Compound 29, (-)-α-[(5-methyl-2-nitrophenyl)amino]-2,6-dichlorobenzeneacetamide] | ~ 1550 | 0.0032 (≈ 0.00903 µM) | 5 (≈ 14.1 µM)
NC(=O)C(Nc1ccccc1[N+](=O)[O-])c1c(Cl)cccc1Cl (single isomer, unassigned; (-)) [Compound 25, (-)-2,6-dichloro-α-[(2-nitrophenyl)amino]benzeneacetamide] | ~ 1600 | 0.018 (≈ 0.0529 µM) | 29 (≈ 85.3 µM)
NC(=O)C(Nc1ccccc1[N+](=O)[O-])c1c(Cl)cccc1Cl (stereo not drawn) [Compound 15, 2-(2,6-dichlorophenyl)-2-[(2-nitrophenyl)amino]acetamide] | ~ 1000 | 0.02 (≈ 0.0588 µM) | 20 (≈ 58.8 µM)
Cc1cc(NC(C(N)=O)c2c(Cl)cccc2Cl)c([N+](=O)[O-])cc1C (stereo not drawn) [Compound 24] | ~ 2100 | 0.077 (≈ 0.209 µM) | 160 (≈ 435 µM)
Cc1ccc([N+](=O)[O-])c(NC(C(N)=O)c2c(Cl)cccc2Cl)c1 (stereo not drawn) [Compound 26] | ≥ 4400 | 0.057 (≈ 0.161 µM) | > 250
Cc1cc(C)c([N+](=O)[O-])c(NC(C(N)=O)c2c(Cl)cccc2Cl)c1 (stereo not drawn) [Compound 27] | ~ 100 | 0.049 (≈ 0.133 µM) | 5 (≈ 13.6 µM)
Cc1cc(NC(C(N)=O)c2c(Cl)ccc(Cl)c2Cl)c([N+](=O)[O-])cc1C (stereo not drawn) [Compound 28] | ~ 140 | 0.07 (≈ 0.174 µM) | 10 (≈ 24.8 µM)
CC(=O)c1ccc(Cl)cc1NC(C(N)=O)c1c(Cl)cccc1Cl (stereo not drawn) [Compound 30, α-[(2-acetyl-5-chlorophenyl)amino]-2,6-dichlorobenzeneacetamide] | ~ 18000 | 0.011 (≈ 0.0296 µM) | 200 (≈ 538 µM)
